# Data reported in US10485803B2, “Pyrimidine compounds as JAK kinase inhibitors” (THERAVANCE BIOPHARMA R&D IP, LLC, priority 2016, dated 2019).
# Experiments:
# [1] = biological target: JAK1 (Homo sapiens (Human), UniProt P23458); experiment: LanthaScreen JAK biochemical assay, JAK1
# Experimental: (§1) A panel of four LanthaScreen JAK biochemical assays (JAK1, 2, 3 and Tyk2) were carried in a common kinase reaction buffer (50 mM HEPES, pH 7.5, 0.01% Brij-35, 10 mM MgCl2, and 1 mM EGTA). Recombinant GST-tagged JAK enzymes and a GFP-tagged STAT1 peptide substrate were obtained from Life Technologies.
# (§2) Serially diluted compounds were pre-incubated with each of the four JAK enzymes and the substrate in white 384-well microplates (Corning) at ambient temperature for 1 h. ATP was subsequently added to initiate the kinase reactions in 10 μl total volume, with 1% DMSO. […] The plates were allowed to incubate at ambient temperature for 1 h before being read on the EnVision reader (Perkin Elmer).
# (§3) For dose-response analysis, percent inhibition data were plotted vs. compound concentrations, and IC50 values were determined from a 4-parameter robust fit model with the Prism software (GraphPad Software). Results were expressed as pIC50 (negative logarithm of IC50) and subsequently converted to pKi (negative logarithm of dissociation constant, Ki) using the Cheng-Prusoff equation.
# [2] = system: IL-13 induced STAT6 phosphorylation in HT-29 human colorectal adenocarcinoma cells; experiment: Cellular JAK potency assay: inhibition of IL-13; assay type: cell-based; settings: HT-29 cells
# Experimental: The potency of test compounds for inhibition of the JAK-dependent cytokine interleuken-13 (IL-13) was assessed by measuring IL-13 (IL-13, R&D Systems) induced STAT6 phosphorylation in HT-29 human colorectal adenocarcinoma cells (ATCC).
# The anti-STAT6 antibody (Cell Signaling Technologies) was conjugated to AlphaScreen acceptor beads (Perkin Elmer), while the anti-pSTAT6 (pTyr641) antibody (Cell Signaling Technologies) was biotinylated using EZ-Link Sulfo-NHS-Biotin (Thermo Scientific).
# HT-29 cells were grown at 37° C. in a 5% CO2 humidified incubator in McCoy's 5a Modified medium (ATCC) supplemented with 10% FBS (Hyclone), 100 U/mL penicillin, 100 μg/mL streptomycin (Life Technologies), and 2 mM GlutaMAX (Life Technologies). On day 1 of the assay, cells were seeded at a 7,500 cells/well density in white poly-D-lysine-coated 384-well plates (Corning) with 25 μL medium, and were allowed to adhere overnight in the incubator. On day 2 of the assay, the medium was removed and replaced with 12 μL of assay buffer (Hank's Balanced Salt Solution/HBSS, 25 mM HEPES, and 1 mg/ml bovine serum albumin/BSA) containing dose-responses of test compounds. Compounds were serially diluted in DMSO and then diluted another 1000-fold in media to bring the final DMSO concentration to 0.1%. Cells were incubated with test compounds at 37° C. for 1 h, and followed by the addition of 12 μl of pre-warmed IL-13 (12 ng/ml in assay buffer) for stimulation. After incubating at 37° C. for 30 min, the assay buffer (containing compound and IL-13) was removed, and 10 μl of cell lysis buffer (25 mM HEPES, 0.1% SDS, 1% NP-40, 5 mM MgCl2, 1.3 mM EDTA, 1 mM EGTA, and supplement with Complete Ultra mini protease inhibitors and PhosSTOP from Roche Diagnostics). The plates were shaken at ambient temperature for 30 min before the addition of detection reagents. A mixture of biotin-anti-pSTAT6 and anti-STAT6 conjugated acceptor beads was added first and incubated at ambient temperature for 2 h, followed by the addition of streptavidin conjugated donor beads (Perkin Elmer). After a minimum of 2 h incubation, the assay plates were read on the EnVision plate reader.
# Results were expressed as the negative logarithm of the IC50 value, pIC50.
# [3] = biological target: JAK2 (Homo sapiens (Human), UniProt O60674); experiment: LanthaScreen JAK biochemical assay, JAK2
# Experimental: as §1, §2, §3
# [4] = Determination of absorption in cannulated rats; assay type: in vivo, Sprague Dawley rats; settings: rat, oral vs IV dose, portal vein
# Experimental: Oral bioavailability (F %), fraction absorbed (Fa%) and fraction escaping hepatic clearance (Fh%) were determined in Sprague Dawley rats from the following two studies:
# (1) Pharmacokinetics in rats following an IV dose of test compound: Following IV dosing, plasma samples were typically collected from 0-6 hr. Drug levels were determined using an LC-MS-MS method. The resulting drug levels were used to compute the IV pharmacokinetic parameters: AUC IV and Dose IV.
# (2) Rats that have been cannulated in their portal vein (PV) and also in their jugular vein (JV) were dosed orally with test compound. Following oral dosing, plasma samples were typically collected from 0-6 hr from both the portal vein and the jugular vein. Drug levels were determined using an LC-MS-MS method. The resulting drug levels were used to compute the following pharmacokinetic parameters: AUC PO PV, AUC PO JV, and Dose PO.
# Using data derived from the above studies, the oral bioavailability F %, and the quantities Fa% and Fh% were calculated from the following formulas: F%=(AUC PO JV/AUC IV)*(Dose IV/Dose PO)*100 Fa%=(AUC PO PV/AUC IV)*(Dose IV/Dose PO)*100 Fh%=AUC PO JV/AUC PO PV • where: • AUC PO JV=Area under the curve following oral dose and plasma collected from the jugular vein • AUC PO PV=Area under the curve following oral dose and plasma collected from the portal vein • AUC IV=Area under the curve following an intravenous dose • Dose IV=Intravenous Dose in mg/kg • Dose PO=Oral Dose in mg/kg
# [5] = system: oxazolone-induced colitis; experiment: Mouse model of oxazolone-induced colitis; assay type: in vivo, BALB/C mice; settings: mice, PO, 1, 3, and/or 10 mg/kg BID
# Experimental: Oxazolone-induced colitis is an experimental model that has a histological resemblance to human ulcerative colitis (Heller et al. […], 2002, 17, 629-638). Adult BALB/C mice from Harlan were used in the assay. On day 1, animals were lightly anesthetized with isoflurane and the hairs between the shoulder were carefully removed before oxazolone (4%, 150 μL, 4:1 acetone: olive oil formulation) or vehicle solution was slowly applied for skin sensitization. Seven days after skin sensitization, the mice were fasted overnight, anesthetized with isoflurane inhalation, and a 1 mL syringe equipped with a 3.5-F catheter, filled with oxazolone solution, was inserted carefully about 4 cm into the colon of the mouse. Following insertion, 50 μL of the oxazolone solution (1%, 1:1 ethanol:water formulation) was injected very slowly (over 30 sec using an injection pump) into the colon. The catheter was removed and the mice were held vertically (head down) for 2 min to ensure that the entire oxazolone solution remained inside the colon. Drug treatment (PO, BID or TID) or vehicle was initiated a day prior to the oxazolone intrarectal (IR) challenge. Two-day post oxazolone intrarectal challenge, the Disease Activity Index (DAI) was assessed by treatment-blinded experimenters for each mouse according to the criteria score: stool consistency score (0, normal; 2, loose; 4, diarrhea), gross bleeding score (0, absence; 2, blood tinged; 4, presence), and weight loss score (0, none; 1, 1%-5%; 2, 5%-10%; 3, 10%-20%; 4, more than 20%); DAI=average of (stool consistency score+gross bleeding score+weight loss score).
# [6] = Dynamic moisture sorption assessment; assay type: physicochemical; settings: for hygroscopicity: 5% to 90% RH, two cycles of sorption and desorption; for weight gain in the humidity range of 5% to 90% relative humidity: 25° C. / room temperature
# Experimental: Dynamic moisture sorption (DMS) measurement was performed using a VTI atmospheric microbalance, SGA-100 system (VTI Corp., Hialeah, Fla. 33016). A weighed sample was used and the humidity was lowest possible value (close to 0% RH) at the start of the analysis. The DMS analysis consisted of an initial drying step (0% RH) for 120 minutes, followed by two cycles of sorption and desorption with a scan rate of 5% RH/step over the humidity range of 5% RH to 90% RH. The DMS run was performed isothermally at 25° C.
# JAK1, sequence (P23458 whole entry): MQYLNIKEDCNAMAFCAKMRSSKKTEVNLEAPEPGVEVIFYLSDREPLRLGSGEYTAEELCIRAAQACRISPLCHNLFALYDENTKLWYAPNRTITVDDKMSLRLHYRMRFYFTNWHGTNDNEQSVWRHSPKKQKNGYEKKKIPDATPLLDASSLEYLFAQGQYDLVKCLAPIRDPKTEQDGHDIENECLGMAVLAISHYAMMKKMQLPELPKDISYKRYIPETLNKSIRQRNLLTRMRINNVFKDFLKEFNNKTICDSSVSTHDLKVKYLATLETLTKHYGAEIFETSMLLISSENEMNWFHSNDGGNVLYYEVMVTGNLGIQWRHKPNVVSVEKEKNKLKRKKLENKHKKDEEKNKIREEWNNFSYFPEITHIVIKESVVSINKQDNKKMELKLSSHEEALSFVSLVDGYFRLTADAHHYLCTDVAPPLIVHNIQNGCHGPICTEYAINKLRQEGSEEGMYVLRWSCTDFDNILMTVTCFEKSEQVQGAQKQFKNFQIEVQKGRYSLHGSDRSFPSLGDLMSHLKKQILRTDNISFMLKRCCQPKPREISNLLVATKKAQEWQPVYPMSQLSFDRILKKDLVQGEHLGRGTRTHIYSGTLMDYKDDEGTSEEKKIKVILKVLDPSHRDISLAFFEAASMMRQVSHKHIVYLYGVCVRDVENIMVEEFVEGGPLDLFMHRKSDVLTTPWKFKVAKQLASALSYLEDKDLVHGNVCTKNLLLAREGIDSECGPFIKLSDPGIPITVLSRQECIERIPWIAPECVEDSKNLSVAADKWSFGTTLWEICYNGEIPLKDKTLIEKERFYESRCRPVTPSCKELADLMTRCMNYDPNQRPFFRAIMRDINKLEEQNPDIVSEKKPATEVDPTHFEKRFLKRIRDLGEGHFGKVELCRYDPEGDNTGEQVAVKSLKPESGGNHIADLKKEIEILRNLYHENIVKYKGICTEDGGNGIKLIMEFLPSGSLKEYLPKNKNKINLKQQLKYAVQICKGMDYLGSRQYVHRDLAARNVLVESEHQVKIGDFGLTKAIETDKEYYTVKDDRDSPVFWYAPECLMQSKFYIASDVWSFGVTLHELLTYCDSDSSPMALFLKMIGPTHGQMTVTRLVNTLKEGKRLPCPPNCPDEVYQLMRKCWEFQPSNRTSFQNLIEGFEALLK
# JAK2, sequence (O60674 whole entry): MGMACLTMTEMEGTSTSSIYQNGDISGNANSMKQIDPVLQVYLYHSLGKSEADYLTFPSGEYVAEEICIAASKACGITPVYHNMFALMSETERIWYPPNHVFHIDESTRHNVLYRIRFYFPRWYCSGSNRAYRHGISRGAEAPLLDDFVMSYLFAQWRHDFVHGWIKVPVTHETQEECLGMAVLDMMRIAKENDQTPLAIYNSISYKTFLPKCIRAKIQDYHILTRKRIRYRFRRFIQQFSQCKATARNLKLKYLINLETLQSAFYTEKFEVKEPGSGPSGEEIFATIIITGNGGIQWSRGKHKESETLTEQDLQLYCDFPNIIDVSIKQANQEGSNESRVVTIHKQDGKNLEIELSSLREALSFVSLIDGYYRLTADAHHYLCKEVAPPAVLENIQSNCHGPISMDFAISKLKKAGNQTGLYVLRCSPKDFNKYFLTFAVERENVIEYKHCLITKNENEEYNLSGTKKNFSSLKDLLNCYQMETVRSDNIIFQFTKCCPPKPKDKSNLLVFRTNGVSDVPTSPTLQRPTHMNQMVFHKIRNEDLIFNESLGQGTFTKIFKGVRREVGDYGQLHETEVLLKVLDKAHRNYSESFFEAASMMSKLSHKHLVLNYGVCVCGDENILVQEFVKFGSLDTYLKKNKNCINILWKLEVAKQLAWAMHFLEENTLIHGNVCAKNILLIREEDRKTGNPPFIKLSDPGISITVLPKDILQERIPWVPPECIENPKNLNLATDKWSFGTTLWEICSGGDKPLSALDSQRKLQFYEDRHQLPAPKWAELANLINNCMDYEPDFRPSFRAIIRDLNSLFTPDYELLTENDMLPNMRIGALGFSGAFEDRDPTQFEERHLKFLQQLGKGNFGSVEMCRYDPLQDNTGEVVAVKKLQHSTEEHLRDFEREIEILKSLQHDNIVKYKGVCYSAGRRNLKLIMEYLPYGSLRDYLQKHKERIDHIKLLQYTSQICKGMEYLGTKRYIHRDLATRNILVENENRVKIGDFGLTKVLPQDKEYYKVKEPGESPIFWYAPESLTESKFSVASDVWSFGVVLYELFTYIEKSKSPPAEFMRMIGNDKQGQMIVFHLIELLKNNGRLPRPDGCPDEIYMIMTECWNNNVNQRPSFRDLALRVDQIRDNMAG
smiles,measurement,setting,value
"COc1cc(Nc2cc(CO)[nH]n2)nc(N[C@@H]2C[C@H]3CCC[C@@H](C2)N3S(=O)(=O)N2CC(C#N)C2)n1 [Example 1-6, 1-(((1R,3s,5S)-3-((4-((5-(hydroxymethyl)-1H-pyrazol-3-yl)amino)-6-methoxypyrimidin-2-yl)amino)-9-azabicyclo[3.3.1]nonan-9-yl)sulfonyl)azetidine-3-carbonitrile]",JAK 1 (pKi),[1],A (A represents a pKi value ≥10 (Ki≤0.1 nM))
"COc1cc(Nc2cc(CO)[nH]n2)nc(N[C@@H]2C[C@H]3CCC[C@@H](C2)N3S(=O)(=O)c2ccccc2)n1 [Example 1-8, (3-((6-methoxy-2-(((1R,3s,5S)-9-(phenylsulfonyl)-9-azabicyclo[3.3.1]nonan-3-yl)amino)pyrimidin-4-yl)amino)-1H-pyrazol-5-yl)methanol]",JAK 1 (pKi),[1],A (A represents a pKi value ≥10 (Ki≤0.1 nM))
same,HT-29 (pIC50),[2],A (A represents a pIC50 value ≥7.5 (IC50≤32 nM))
"COc1cc(Nc2cc(CO)[nH]n2)nc(N(C)[C@@H]2C[C@H]3CCC[C@@H](C2)N3S(=O)(=O)N2CCCC2)n1 [Example 1-13, (3-((6-methoxy-2-(methyl((1R,3s,5S)-9-(pyrrolidin-1-ylsulfonyl)-9-azabicyclo[3.3.1]nonan-3-yl)amino)pyrimidin-4-yl)amino)-1H-pyrazol-5-yl)methanol]",JAK 2 (pKi),[3],A (A represents a pKi value ≥10 (Ki≤0.1 nM))
same,JAK 1 (pKi),[1],A (A represents a pKi value ≥10 (Ki≤0.1 nM))
same,HT-29 (pIC50),[2],A (A represents a pIC50 value ≥7.5 (IC50≤32 nM))
"COc1cc(Nc2cc(CO)[nH]n2)nc(N(C)[C@@H]2C[C@H]3CCC[C@@H](C2)N3S(=O)(=O)C2CC2)n1 [Example 1-14, (3-((2-(((1R,3s,5S)-9-(cyclopropylsulfonyl)-9-azabicyclo[3.3.1]nonan-3-yl)(methyl)amino)-6-methoxypyrimidin-4-yl)amino)-1H-pyrazol-5-yl)methanol]",JAK 2 (pKi),[3],A (A represents a pKi value ≥10 (Ki≤0.1 nM))
same,HT-29 (pIC50),[2],A (A represents a pIC50 value ≥7.5 (IC50≤32 nM))
"COc1cc(Nc2cc(CO)[nH]n2)nc(N(C)[C@@H]2C[C@H]3CCC[C@@H](C2)N3S(=O)(=O)c2cccnc2)n1 [Example 1-15, (3-((6-methoxy-2-(methyl((1R,3s,5S)-9-(pyridin-3-ylsulfonyl)-9-azabicyclo[3.3.1]nonan-3-yl)amino)pyrimidin-4-yl)amino)-1H-pyrazol-5-yl)methanol]",JAK 2 (pKi),[3],A (A represents a pKi value ≥10 (Ki≤0.1 nM))
"COc1cc(Nc2cc(CO)[nH]n2)nc(N(C)[C@@H]2C[C@H]3CCC[C@@H](C2)N3S(=O)(=O)N2CCC2)n1 [Example 1-17, (3-((2-(((1R,3s,5S)-9-(azetidin-1-ylsulfonyl)-9-azabicyclo[3.3.1]nonan-3-yl)(methyl)amino)-6-methoxypyrimidin-4-yl)amino)-1H-pyrazol-5-yl)methanol]",JAK 2 (pKi),[3],A (A represents a pKi value ≥10 (Ki≤0.1 nM))
same,HT-29 (pIC50),[2],A (A represents a pIC50 value ≥7.5 (IC50≤32 nM))
"COc1cc(Nc2cc(CO)[nH]n2)nc(N(C)[C@@H]2C[C@H]3CCC[C@@H](C2)N3S(=O)(=O)c2cncc(F)c2)n1 [Example 1-19, (3-((2-(((1R,3s,5S)-9-((5-fluoropyridin-3-yl)sulfonyl)-9-azabicyclo[3.3.1]nonan-3-yl)(methyl)amino)-6-methoxypyrimidin-4-yl)amino)-1H-pyrazol-5-yl)methanol]",HT-29 (pIC50),[2],A (A represents a pIC50 value ≥7.5 (IC50≤32 nM))
"COc1cc(Nc2cc(CO)[nH]n2)nc(N(C)[C@@H]2C[C@H]3CCC[C@@H](C2)N3S(C)(=O)=O)n1 [Example 3, (3-((6-methoxy-2-(methyl((1R,3s,5S)-9-(methylsulfonyl)-9-azabicyclo[3.3.1]nonan-3-yl)amino)pyrimidin-4-yl)amino)-1H-pyrazol-5-yl)methanol]",absorption at the portal vein (Fa%),[4],greater than 40%
"COCCS(=O)(=O)N1[C@@H]2CCC[C@H]1C[C@H](N(C)c1nc(Nc3cc(CO)[nH]n3)cc(OC)n1)C2 [Example 4, (3-((6-methoxy-2-(((1R,3s,5S)-9-((2-methoxyethyl)sulfonyl)-9-azabicyclo[3.3.1]nonan-3-yl)(methyl)amino)pyrimidin-4-yl)amino)-1H-pyrazol-5-yl)methanol]",decrease in DAI score as compared with vehicle treated animals,[5],statistically significant decrease
same,absorption at the portal vein (Fa%),[4],greater than 40%
"COc1cc(Nc2cc(CO)[nH]n2)nc(N(C)[C@@H]2C[C@H]3CCC[C@@H](C2)N3C(=O)C(F)F)n1 [Example 9, 2,2-difluoro-1-((1R,3s,5S)-3-((4-((5-(hydroxymethyl)-1H-pyrazol-3-yl)amino)-6-methoxypyrimidin-2-yl)(methyl)amino)-9-azabicyclo[3.3.1]nonan-9-yl)ethan-1-one]",IC50,"[2]; Homo sapiens, read-out: HT-29 (pIC50) (converted)",31.6 to 200 nM
"COc1cc(Nc2cc(CO)[nH]n2)nc(N(C)[C@@H]2C[C@H]3CCC[C@@H](C2)N3S(=O)(=O)N2CC(C#N)C2)n1 [Form I, 1-(((1R,3s,5S)-3-((4-((5-(hydroxymethyl)-1H-pyrazol-3-yl)amino)-6-methoxypyrimidin-2-yl)(methyl)amino)-9-azabicyclo[3.3.1]nonan-9-yl)sulfonyl)azetidine-3-carbonitrile]",hygroscopicity,[6],non-hygroscopic
same,weight gain in the humidity range of 5% to 90% relative humidity,[6],less than 0.4%
same,weight gain in the humidity range of 5% to 90% relative humidity,"[6]; listed as Crystalline 1-((1R,3s,5S)-3-((4-((5-(hydroxymethyl)-1H-pyrazol-3-yl)amino)-6-me)))",less than 0.4%
"COc1cc(Nc2cc(CO)[nH]n2)nc(N(C)[C@@H]2C[C@H]3CCC[C@@H](C2)N3S(=O)(=O)N2CC(C#N)C2)n1 [Form II, 1-(((1R,3s,5S)-3-((4-((5-(hydroxymethyl)-1H-pyrazol-3-yl)amino)-6-methoxypyrimidin-2-yl)(methyl)amino)-9-azabicyclo[3.3.1]nonan-9-yl)sulfonyl)azetidine-3-carbonitrile]",hygroscopicity,[6],slightly hygroscopic
same,weight gain in the humidity range of 5% to 90% relative humidity,[6],about 1.2%
